What was measured:
[1] = tested on: GLP-1-induced insulin secretion; experiment: In vivo GLP-1 stimulated insulin secretion (i.p. GLP-1, then i.v. glucose challenge); design: species or system mice
Protocol: (§1) To evaluate GLP-1 sensitivity three GLP-1 regulated parameters were quantified: insulin secretion, gastric emptying, and food intake. To prevent from the degradation of exogenous GLP-1 a DPP4 inhibitor (400 μg/mouse sitagliptin) was given orally 30 min before the GLP-1 challenge.
Since GLP-1 insulinotropic effect is glucose dependent we first assessed in vivo GLP-1 stimulated insulin secretion in hyperglycemic conditions. The mice were first fasted for 6 h before the GLP-1 and glucose challenges. Active GLP-17-36 (BACHEM, Switzerland) was then administered intraperitoneally at different doses (0, 2.2, 7, 20, 63 nmol/kg, diluted in distilled water) 5 min before the glucose challenge. In some sets of experiments a single active dose of 7 nmol/kg was tested. To induce hyperglycemic conditions a retrorbital i.v. glucose (1 g/kg) injection was realised. This procedure avoids the confounding effect of the oral glucose-induced gut-secreted GLP-1. Blood (30 μl) was collected from the tail vein 15 min after glucose challenge. Plasma insulin concentration was determined.
The dose-response curve was calculated by curve interpolation with 4-Parameter Logistic (4PL) sigmoidal model using GraphPad Prism version 6.00 for Mac (GraphPad Software, San Diego, Calif., USA; www.graphpad.com) and the ECso calculated.
(§2) Thirty minutes before all 3 GLP-1 challenge procedures, a NO synthase (NOS) inhibitor (L-NAME, Abcam) was administered i.p. at doses of 0, 50, 100, 200 μg/kg. In a different set of mice, a NO donor (L-Arginine, 1 g/kg, Sigma-Aldrich) was administered orally in the presence or absence of the GLP-1r antagonist, Exendin 9 (1 nmol/mice, 100 μL, i.p. injection, Bachem). To study the chronic effect of L-arginine in GLP-1 sensitivity, the molecule (0.5 g/kg, 300 μL, lgavage/day) was administered for one week.

gastric emptying = experiment: GLP-1 regulated gastric emptying (oral acetaminophen, plasma acetaminophen); assay type: in vivo, mice
Protocol: as §1
For gastric emptying the glucose challenge was replaced by an oral administration of acetaminophen (SIGMA-Aldrich, […]). The plasma acetaminophen concentrations were assessed by colorimetric-based assay (SEKISUI diagnostics, Canada) in the plasma from tail blood during 15 min.
as §2

insulin secretion = experiment: Oral glucose-induced insulin secretion after oral NO donor; assay type: in vivo, mice
Protocol: To identify oral glucose-induced insulin and GLP-1 secretions, all sets of mice were gavaged with glucose (2 g/kg). After 15 min, 30 μl of blood from the tip of the tail vein were sampled to assess plasma insulin concentration. 300 μl of portal vein blood were collected following an intravenous (i.v.) administration of a Ketamin (10 mg/kg)/Xylasin (1 mg/kg), to ensure an immediate anesthesia of the mice. This procedure allows performing portal vein blood sampling since it dramatically minimizes the impact of anesthesia on blood parameters. In addition, to prevent from the in vivo degradation of GLP-1 by DPP4, a DPP4 inhibitor (400 μg/mouse sitagliptin, MSD Rahway, N.J.) was administered orally 30 min before the oral gavage with glucose. Eventually, the portal blood was collected in the presence of protease inhibitors diprotin A (1 mM), aprotinin (0.2 μM) and EDTA (1 mM). Plasma hormones were assessed by ELISA (insulin, Mercodia; active GLP-17-36, Alpco). A GLP-1 resistance index for each mice was calculated from glucose, insulin and GLP-1 concentrations 15 min after the oral glucose load. Since the insulinotropic activity of GLP-1 depends upon the glycemic level we set the following equation: Glucose x GLP-1 concentrations/insulin concentration. In some experiments, distal ileum and left nodose ganglion were harvested from mice.
as §2

[2] = tested on: meal-induced insulin secretion; settings: administered orally; healthy, type II diabetic patients, and diabetic mice; cited from earlier work
food intake = experiment: GLP-1 regulated food intake (30 min after 16-hour fast); assay type: in vivo, mice
Protocol: as §1
Food intake was recorded for 30 min following a 16-hour period of fast.
as §2

distal ileum segment = experiment: Ex vivo ileal real-time NO measurement; design: species or system mice
Protocol: The distal ileum segment from fed mice were washed in Krebs-Ringer bicarbonate/glucose buffer (pH 7.4) in an atmosphere containing 95% O2—5% CO2 and then immersed in Eppendorf tubes containing 400 μL of the same medium. After a 10 min recovery period, the spontaneous NO release in response to 10 μL of Krebs-Ringer solution (control), GLP-1 (150 nM) and/or Exendin 9 (375 nM) was measured at 37° C. for 10 min using a NO-specific amperometric probe (ISO-NOPF, […], 5 mm length, World Precision Instruments, Aston Stevenage, UK) implanted directly in the ileum. Data are expressed (Fournel et al., 2015).

[3] = tested on: cFos positive cells in the brain stem (NTS-DMNX); experiment: c-FOS immunostaining in the brain stem after GLP-1; assay type: in vivo, mice
Protocol: Brain was removed and kept on PFA 4% overnight at 4° C. After washing in cold citrate buffer for 6 h, brain was warmed until boiling, washed in PBS, cooled to 4° C., then immersed in cold sucrose solutions (10% then 30% in PBS). After freezing on dry ice, the brain was stored at −80° C. and cut into 20 μm thick slices (cryostat, Thermo). The slices were washed 3 times with PBS, blocked with PBS, 0.3% Triton X100, 2% donkey serum and incubated with the c-fos antibody diluted in the same solution ( 1/10000, Santa Cruz) overnight at RT. After 16 h, the brain slices were washed 3 times with PBS and incubated with biotinylated antibody ( 1/2000, Jackson ImmunoResearch) diluted in the PBST solution (PBS, 0.3% Triton X100) for 1 h at RT. Brain slices were washed 3 times in PBS and incubated with the reagent A (avidin) and B (biotinylated enzyme) from Vectastain Elite ABC kit (Vector Laboratories) diluted in the PBST solution, 30 min at RT. Then, brain slices were washed 3 times in PBS and incubated with biotinylated tyramine solution (tyramine and biotin diluted in borate buffer/3% H2O2, pH=8.4), 20 min at RT. […] The fluorescence was analysed as above. We identified the Nucleus Tractus Solitary NTS and dorsal motor nucleus of vagus nerve DMNX area using a mouse brain atlas (Franklin and Paxinos, 1997) and we counted the number of cFOS positive cells/area corresponding to the NTS-DMNX.

primary enteric neurons = experiment: GLP-1-induced NO production in primary cultures of enteric neurons (DAF-FM); assay type: cell-based, mice
Protocol: The protocol was adapted from Smith and colleagues (Smith et al., 2013). The ileum (last 9 cm) was harvested and kept in ice cold-carbogen bubbled-Krebs solution. The tissue was cut into 3 cm slices and kept on plastic rod. An incision was realized with a forceps where the mesentery was attached. The outer layers containing muscular cells and myenteric neurons (LMMP) were obtained by moving from top to bottom, along the gap. The LMMP were digested with collagenase II (1.3 mg/mL, Worthington) and BSA (0.3 mg/mL) in Krebs solution bubbled with carbogen 30 min in a 37° C. shaking bath. Digested cells were transferred in Hank Balanced salt Solution (HBSS)/trypsin solution (0.05%) 7 min in a 37° C. shaking bath. […]
Primary enteric neurons were grown for 7 days in culture. […] The fluorescence was measured on confocal Zeiss Laser Scanning Microscope LSM-780 equipped with 63×/1.4 NA oil immersion objective and a GaAsP detector with quantum yield of 45% with Black Zen software and analysed with Image J software. A region of interest (ROI) corresponding to identified nNOS positive cells was defined from where the DAF-FM or nNOS fluorescence mean per ROI was measured. The ratio of both values for each ROI was then calculated.

[4] = L-NAME i.p. 30 min before GLP-1 challenge

With `N=C(N)NCCC[C@H](N)C(=O)O` [L-Arginine] the “GLP-1-induced insulin secretion (GLP-1 sensitivity)” value ([1]; HFD diabetic mice, chronic NO-donor treatment (1 week)) was “enhanced”, the gastric emptying (gastric emptying; HFD diabetic mice, NO-donor treatment) was “could also improve” and the gastric emptying inhibition (gastric emptying; oral NO donor, through the GLP-1r) was “can induce gastric emptying inhibition”. The insulin secretion (insulin secretion; HFD GLP-1 resistant diabetic mice, oral and acute administration) was “improved insulin secretion”, the “insulin secretion after oral glucose challenge” value (insulin secretion; NCD-fed mice, oral and acute treatment) was “induced insulin secretion” and the meal-induced insulin secretion [2] was “improves”.
For `COC(=O)[C@@H](N)CCCNC(=N)N[N+](=O)[O-]` [L-NAME], the “effect on GLP-1-induced insulin secretion” value ([1]; NCD mice, L-NAME i.p. 30 min before GLP-1 challenge) was “partially reduced”, the “effect on GLP-1-induced food intake inhibition” value (food intake; [4]) was “but not GLP-1-induced food intake inhibition” and the “effect on GLP-1-induced gastric emptying inhibition” value (gastric emptying; [4]) was “altered”.
For Exendin 9, the “effect of co-treatment on L-Arginine-increased insulin secretion” value (insulin secretion; NCD-fed mice, co-treatment with L-Arginine) was “prevented the effect of GLP-1” and the “effect on GLP-1 induced NO production” value (distal ileum segment; ileum segments, Exendin 9 with GLP-1) was “prevented GLP-1 induced NO production”.
With “GLP-1: Active GLP-1 7-36 (BACHEM), insulinotropic hormone, GLP-1 receptor agonist” the “EC50 of GLP-1-induced insulin secretion (fold change dose-response)” value ([1]; HC-HFD mice compared to NCD mice) was “doubled”, the “EC50 of GLP-1-induced insulin secretion (fold change dose-response)” value ([1]; HFD-fed lean diabetic mice compared to NCD mice) was “dramatically increased” and the “dose of GLP-1 reaching the maximal insulin secretion” value ([1]; NCD and HC-HFD-fed mice, GLP-1 i.p., plasma insulin 15 min after i.v. glucose) was 7 nmol/kg. For the same compound, the GLP-1-induced insulin secretion ([1]; NCD-fed subdiaphragmatic vagotomy (SDVx) mice, GLP-1 7 nmol/kg) was “reduced”, the GLP-1-induced insulin secretion ([1]; NOD2, CD14 and TLR4 KO mice compared to wild type controls) was “dramatically reduced” and the GLP-1-induced insulin secretion ([1]; germ free mice) was “prevented”. The “energy intake with increasing doses of GLP-1” value (food intake; HFD-fed lean diabetic mice compared to NCD-fed mice) was “only modestly reduced”, the food intake (food intake; NOD2, CD14 and TLR4 KO mice) was “remained unchanged” and the “energy intake after GLP-1 administration” value (food intake; sham versus SDVx-operated mice) was “similar”. For the same compound, the “number of cFos positive neurons in response to GLP-1” value ([3]; NCD mice, GLP-1 7 nmol/kg) was “increases”, the “number of cFos positive cells in the brain stem after GLP-1 administration” value ([3]; germ free mice) was “could not be increased” and the gastric emptying (gastric emptying; NOD2, CD14 and TLR4 KO mice) was “impaired”. For the same compound, the “GLP-1 effect on gastric emptying” value (gastric emptying; SDVx-operated NCD-fed mice) was “induces GLP-1 resistance to gastric emptying”, the “plasma concentrations of acetaminophen after GLP-1 administration (gastric emptying)” value (gastric emptying; both fat-enriched diet-fed mice (HC-HFD, HFD)) was “remained elevated” and the “GLP-1-induced NO production” value (primary enteric neurons; enteric neurons from HFD-fed mice versus NCD) was “dramatically resistant”. The “NO production by enteric neurons stimulated by GLP-1” value (primary enteric neurons; enteric neurons from germ free mice) was “could not be stimulated”, the “GLP-1-induced NO production ex vivo from ileum segments” value (distal ileum segment; HFD-fed GLP-1 resistant mice) was “totally blunted” and the “GLP-1-induced NO production ex vivo from ileum segments” value (distal ileum segment; NCD versus HC-HFD-fed GLP-1 sensitive mice) was “similar”.

From patent US11285180B2, “Methods of enhancing the potency of incretin-based drugs in subjects in need thereof” (INSERM (INSTITUT NATIONAL DE LA SANTE ET DE LA RECHERCHE …, priority 2016, dated 2022)
